The structures appear in SMILES notation.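 Exposure lasted 48 hours, with cells grown in 96-well plates and compounds tested at five concentrations. At the GI50, growth is halved. TGI marks complete inhibition of growth.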 A value given as a limit tells only on which side of the number the result lay.

This is an account of results in PubChem BioAssay (NCI).

Test systems include OVCAR-4 ovarian; K-562 leukemia; KM12 colon; HT29 colon; OVCAR-8 ovarian; SNB-75 CNS; NCI-H460 lung; RXF 393 renal; PC-3 prostate; U251 CNS.
What all share (test): NCI anticancer screen, dose series, 48 h

On to `Oc1cc(Br)cc2cc(Br)cnc12`, for which the TGI was 9.59 µM in the assay with OVCAR-4 ovarian; 94.2 µM with K-562 leukemia; above 100 µM in the assay with KM12 colon; above 100 µM in the assay on HT29 colon; above 100 µM in the assay on OVCAR-8 ovarian; above 100 µM in the assay with SNB-75 CNS. The TGI is 22.1 µM in the assay with NCI-H460 lung, 10.9 µM in the assay with RXF 393 renal and above 100 µM in the assay with PC-3 prostate.
As for `C[N+](C)(C)c1nc(N)nc2c1ncn2C1OC(CO)C(O)C1O` (configuration not stated), the TGI with OVCAR-4 ovarian, in the assay with K-562 leukemia, in the assay with KM12 colon, in the assay on HT29 colon, with OVCAR-8 ovarian and in the assay with SNB-75 CNS was above 100 µM each time. Further, the TGI in the assay on NCI-H460 lung, with RXF 393 renal, with PC-3 prostate and in the assay with U251 CNS was above 100 µM throughout.
For the compound `NC(=S)N1N=C(c2ccc3c(c2)CCC3)CC1c1ccccc1` (configuration not stated), the TGI in the assay with OVCAR-4 ovarian was 85.2 µM; in the assay on K-562 leukemia, above 100 µM; with KM12 colon, above 100 µM; with HT29 colon it was above 100 µM; with OVCAR-8 ovarian, above 100 µM; with SNB-75 CNS, 56.1 µM. Also, the TGI in the assay on NCI-H460 lung came to 64.9 µM; with RXF 393 renal, 28 µM; in the assay on PC-3 prostate it was 87.8 µM; with U251 CNS, 63.5 µM.
`CCCCCCCCCC[C@@H](O)[C@H]1CC[C@@H]([C@H]2CC[C@H]([C@H](O)CCCCCCCCCC[C@@H]3CC(CC(C)=O)C(=O)O3)O2)O1` (some centres not stated): the TGI was 85.5 µM with OVCAR-4 ovarian; above 100 µM in the assay with KM12 colon; above 100 µM in the assay on OVCAR-8 ovarian; above 100 µM with NCI-H460 lung; 24.8 µM in the assay on RXF 393 renal; 99.4 µM with PC-3 prostate. The GI50 is 24.2 µM in the assay on KM12 colon; 22.7 µM in the assay with OVCAR-8 ovarian; 72 µM in the assay on SNB-75 CNS; 0.0647 µM in the assay with NCI-H460 lung; 25.4 µM in the assay with PC-3 prostate.
Turning to `C=CC(=O)N1C/C(=C\c2ccc(F)cc2)C(=O)/C(=C/c2ccc(F)cc2)C1`, the TGI in the assay on OVCAR-4 ovarian is 1.85 µM; with K-562 leukemia, above 100 µM; in the assay with KM12 colon it was 0.434 µM; in the assay with HT29 colon, 0.285 µM; in the assay on OVCAR-8 ovarian, 2.59 µM; in the assay with SNB-75 CNS, 1.94 µM. The TGI in the assay with NCI-H460 lung amounted to 2.04 µM; in the assay on RXF 393 renal, 0.556 µM; with PC-3 prostate, 1.79 µM; with U251 CNS, 2.28 µM.
For the compound `OCC(CO)CC1COc2ccccc2O1` (configuration not stated), the TGI in the assay with OVCAR-4 ovarian, in the assay with K-562 leukemia, with KM12 colon, with HT29 colon, in the assay with OVCAR-8 ovarian and in the assay on SNB-75 CNS was above 10 µM each time. In addition, the TGI with NCI-H460 lung, with RXF 393 renal, in the assay with PC-3 prostate and in the assay with U251 CNS was above 10 µM in each case.
Take `Cc1nc2ccccc2n1CCc1nc2ccccc2[nH]1`: the TGI in the assay on OVCAR-4 ovarian, in the assay with K-562 leukemia, in the assay with KM12 colon, in the assay on HT29 colon, with OVCAR-8 ovarian and in the assay with SNB-75 CNS was above 100 µM in each case. The TGI with NCI-H460 lung, in the assay with RXF 393 renal, in the assay with PC-3 prostate and in the assay on U251 CNS was above 100 µM each time.
In the case of `Cc1cc(C(C)(C)C)c(OCCCN2CCOCC2)c(C(C)(C)C)c1`, the TGI was determined as 31.5 µM in the assay with OVCAR-4 ovarian; 33.3 µM in the assay on K-562 leukemia; 36 µM in the assay on KM12 colon; 32.7 µM in the assay with HT29 colon; 35.4 µM in the assay with OVCAR-8 ovarian; 32.6 µM in the assay on SNB-75 CNS. Moreover, the TGI is above 100 µM with NCI-H460 lung, 31.9 µM in the assay on RXF 393 renal, 29.9 µM in the assay with PC-3 prostate and 33.2 µM in the assay with U251 CNS.
In the case of `O/N=C1/CCCCC1NO` (configuration not stated), the TGI with OVCAR-4 ovarian, in the assay with K-562 leukemia, with KM12 colon, in the assay with HT29 colon, in the assay on OVCAR-8 ovarian and in the assay with SNB-75 CNS was above 100 µM throughout. The TGI with NCI-H460 lung, in the assay on RXF 393 renal, with PC-3 prostate and in the assay with U251 CNS was above 100 µM each time.
Take `OCC1=C[C@@](COCc2ccccc2)(OCc2ccccc2)[C@@H](OCc2ccccc2)[C@@H]1OCc1ccccc1`: the TGI in the assay with OVCAR-4 ovarian is 73.3 µM; in the assay with K-562 leukemia, 50.6 µM; with KM12 colon it was 56.6 µM; in the assay on HT29 colon, 35.6 µM; with OVCAR-8 ovarian, above 100 µM; in the assay on NCI-H460 lung, 53.1 µM. The values for the TGI with RXF 393 renal, in the assay on PC-3 prostate and with U251 CNS were 18.4 µM, 55.5 µM and 25.6 µM, respectively.
Take `CC(=O)Nc1oc(C)nc1C#N`: the TGI in the assay with OVCAR-4 ovarian, in the assay with K-562 leukemia, with KM12 colon, in the assay on HT29 colon, with OVCAR-8 ovarian and in the assay with RXF 393 renal was above 100 µM each time. Moreover, the TGI in the assay on PC-3 prostate and with U251 CNS was above 100 µM in each case.
Regarding `Cc1ccc2c(=O)c3c(O)c4c(cc3n(C)c2c1)OC(C)(C)C=C4`, the TGI in the assay on OVCAR-4 ovarian, with K-562 leukemia, with KM12 colon, with HT29 colon, in the assay with OVCAR-8 ovarian and with SNB-75 CNS was above 10 µM throughout. The TGI in the assay on NCI-H460 lung, with RXF 393 renal, with PC-3 prostate and in the assay on U251 CNS was above 10 µM each time.
Regarding `NC(=O)Nc1n[nH]c(-c2ccccc2)n1`, the TGI in the assay with OVCAR-4 ovarian, in the assay with K-562 leukemia, in the assay with KM12 colon, with HT29 colon, with OVCAR-8 ovarian and in the assay on SNB-75 CNS was above 100 µM in each case. The TGI in the assay on NCI-H460 lung, in the assay on RXF 393 renal, in the assay with PC-3 prostate and with U251 CNS was above 100 µM in each case.
Consider `O=c1[nH]nc(Cc2ccc([N+](=O)[O-])cc2)[nH]1`, for which the TGI in the assay with OVCAR-4 ovarian, in the assay with K-562 leukemia, in the assay with KM12 colon, in the assay with HT29 colon, in the assay on OVCAR-8 ovarian and with SNB-75 CNS was above 100 µM in each case. Also, the TGI in the assay on NCI-H460 lung, with RXF 393 renal, in the assay with PC-3 prostate and with U251 CNS was above 100 µM in each case.
